The numbers were not newly measured in patent US9682924B2, “Crystalline form of VSN16” (CANBEX THERAPEUTICS LIMITED, priority 2013, dated 2017), which cites them from elsewhere.

SMILES strings stand for the structures.

One series concerns mesenteric arteries. The note with it: for antagonism of VSN16 vasorelaxation: antagonist against VSN16-induced vasorelaxation, rimonabant and AM 251 at high concentrations.
The test system of another series is spasticity in CREAE mice. The note with it: without producing significant adverse CNS effects.
The next series addresses T1, CB1 receptors (Rattus norvegicus, UniProt P20272).
T1 construct: from tissue; host or cells: rat cerebellum
The note with it: rat cerebellum.

T1 sequence (P20272 whole entry): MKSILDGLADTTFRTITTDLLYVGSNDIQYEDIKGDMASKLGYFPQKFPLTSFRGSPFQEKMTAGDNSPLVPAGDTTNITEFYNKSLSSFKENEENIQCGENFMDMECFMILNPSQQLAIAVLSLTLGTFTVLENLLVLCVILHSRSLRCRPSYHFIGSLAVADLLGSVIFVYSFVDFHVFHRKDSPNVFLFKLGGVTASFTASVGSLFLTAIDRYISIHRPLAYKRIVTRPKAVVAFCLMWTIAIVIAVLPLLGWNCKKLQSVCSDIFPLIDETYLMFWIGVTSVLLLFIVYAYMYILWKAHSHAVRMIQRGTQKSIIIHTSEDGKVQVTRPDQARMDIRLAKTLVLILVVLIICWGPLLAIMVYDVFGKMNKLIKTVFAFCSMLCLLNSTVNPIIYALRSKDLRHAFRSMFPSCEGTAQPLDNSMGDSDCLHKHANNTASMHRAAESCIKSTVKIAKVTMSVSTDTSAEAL

For `Cc1c(C(=O)NN2CCCCC2)nn(-c2ccc(Cl)cc2Cl)c1-c1ccc(I)cc1` [AM 251], in the series on mesenteric arteries, the “antagonism of VSN16 vasorelaxation” value is listed as “antagonized”.

For `C=C(C)[C@@H]1CCC(C)=C[C@H]1c1c(OC)cc(C)cc1OC` [O-1918], the “antagonism of VSN16 vasorelaxation” value with mesenteric arteries is on record as “antagonized”.

For the compound `CC(CO)NC(=O)c1cccc(/C=C\CCCC(=O)N(C)C)c1` (centres unmarked) [VSN16], the “relaxation of mesenteric arteries” value in the series on mesenteric arteries (endothelium-dependent) was “relaxes mesenteric arteries in an endothelium-dependent manner”. Besides, the effect on spasticity entry with spasticity in CREAE mice is listed as “marked effect on spasticity”. At CB1 receptors, the “effect on [3H]CP55,940 binding to CB1 receptors” value is listed as “does not affect”. In addition, in the series with conscious rats, the blood pressure entry is recorded as “transiently increases blood pressure” and the mesenteric vascular conductance result is recorded as “longer-lasting increase in mesenteric vascular conductance”.

In the case of `Cc1c(C(=O)NN2CCCCC2)nn(-c2ccc(Cl)cc2Cl)c1-c1ccc(Cl)cc1` [rimonabant], the “antagonism of VSN16 vasorelaxation” value in the series with mesenteric arteries is listed as “antagonized”.
